Measurements as given in patent US12409129B2, “Skin care composition” (BEIERSDORF AG, priority 2019, dated 2025).

Legend:
C. acnes strain C3 = test: Minimum inhibitory concentration (MIC) / compatibility of cosmetic excipients; format: cell-based, Cutibacterium acnes; conditions: % w/vol, incubated anaerobically 3 days at 37° C, growth scored visually
Method: (§1) In microbiology, the MIC is the lowest concentration of a chemical which prevents visible growth of bacterium. The resulted MIC value depends both on the microorganism and the test compound. The MIC is determined by preparing concentrations series of the test compound in vitro, incubating the solutions with the separate batches of cultured bacteria, and measuring the results using agar dilution or broth microdilution. For the experiments with C. acnes strains C3 and K8, media comprising yeast extract soy peptone and dextrose were used. The MIC is determined by turbidity.
(§2) A total of 125 cosmetic excipients were tested for their compatibility with C. acnes strains C3 and K8. Hydrophilic compounds were tested in a 96-well plate liquid broth format, poorly soluble compounds were pre-dissolved in DMSO before dilution in liquid broth and hydrophobic or solid compounds were tested in an agar well diffusion test assay. The different dilutions of the test excipients in media were prepared in Falcon tubes and then distributed in a deep well plate using a multistepper. Each well received 1.2 ml and was subsequently inoculated with 120 μl of C. acnes bacteria suspension (strain C3 and K8). From the deep well plate 200 μl were transferred in each well of a clear 96 well replicate plate. The leftover was discarded. The plates were then incubated anaerobically for 3 days at 37° C. Following incubation, the test plates were visually examined and wells were scored for growth or complete growth inhibition to define the minimum inhibitory concentration.
(§3) These excipients are listed in the below table with their compatibility values for C. acnes strains C3 and K8. The compatibility values represent the MIC value of the listed ingredients with the tested C. acnes strains. At this concentration [% w/vol] the tested compound starts interfering with the growth of the tested strains. The compounds can be used in formulations at concentrations below this concentration.

C. acnes strain K8 = test: as above; format: cell-based, Cutibacterium acnes; conditions: % w/vol, incubated anaerobically 3 days at 37° C, growth scored visually
Method: as §1, §2, §3

Row | Molecule | COMPATABILITY VALUE C3 [%] (MIC value) (C. acnes strain C3) | COMPATABILITY VALUE K8 [%] (MIC value) (C. acnes strain K8)
1 | CCCCCCC(O)CO (centres unmarked) [caprylyl glycol] | 0.18 | 0.18
2 | O=C(O)CC(O)(CC(=O)O)C(=O)O [citric acid] | 0.33 | 0.08
3 | CCO [ethanol] | 3.75 | 3.75
4 | CC(CO)CO [methylpropanediol] | 4.00 | 4.00
5 | CC(=O)Oc1c(C)c(C)c2c(c1C)CCC(C)(CCC[C@H](C)CCC[C@H](C)CCCC(C)C)O2 (some centres unmarked) [tocopheryl acetate] | 1.00 | 1.00
6 | ethylhexyl cocoate | 10.00 | 10.00
7 | tocopherol | 1.50 | 1.50
